Earlier results on one compound are cited in publication PMC4594385 (Journal of Medical Physics / Association of Medical …, 2015).

For the data set the following is noted: compared with femur uptake at 4 h; ref Banerjee et al. [1].

The structures appear in SMILES notation.

`O=P([O-])(O)CN(CCN(CP(=O)([O-])O)CP(=O)(O)O)CP(=O)([O-])O.[153Sm+3]` [^153Sm-EDTMP]: the Bone uptake was 3.72 %ID/g.
